Experimental data: patent US9938322B2, “β-hairpin peptidomimetics” (priority 2013, dated 2018)
Where a SMILES comes first, the peptide text is derived from it. [ ]: non-standard residue; d: D form. Ala(thiazol-2-yl) = N[C@@H](Cc1nccs1)C(=O)O; Cha = N[C@@H](CC1CCCCC1)C(=O)O; Chg = N[C@H](C(=O)O)C1CCCCC1; Tle = CC(C)(C)[C@H](N)C(=O)O; dDab = NCC[C@@H](N)C(=O)O; hSer = N[C@@H](CCO)C(=O)O; Orn = NCCC[C@H](N)C(=O)O; Dab = NCC[C@H](N)C(=O)O; Nva = CCC[C@H](N)C(=O)O; Dap = NC[C@H](N)C(=O)O

Test system: human red blood cells (hRBC)
Experiment: Hemolysis of human red blood cells
Type: cell-based
Settings: red cells of human, 1 h, 100
Experimental: Lyophilized peptides were weighed on a Microbalance (Mettler MT5) and dissolved in sterile water to a final concentration of 1 mg/ml. Stock solutions were kept at +4° C., light protected.
The peptides were tested for their hemolytic activity against human red blood cells (hRBC). Fresh hRBC were washed three times with phosphate buffered saline (PBS) and centrifuged for 10 min at 2000×g. Compounds (100 μg/ml) were incubated with 20% hRBC (v/v) for 1 h at 37° C. and shaking at 300 rpm. The final erythrocyte concentration was approximately 0.9×10^9 cells/ml. A value of 0% and 100% cell lyses, respectively, was determined by incubation of hRBC in the presence of PBS containing 0.001% acetic acid and 2.5% Triton X-100 in H2O, respectively. The samples were centrifuged, the supernatants were 8-fold diluted in PBS buffer and the optical densities (OD) were measured at 540 nm. The 100% lyses value (OD540H2O) gave an OD540 of approximately 0.5-1.0.
Percent hemolysis was calculated as follows: (OD540peptide/OD540H2O)×100%.

SMILES	Hemolysis at 100 μg/ml
CCC[C@@H]1NC(=O)[C@@H]2CCCN2C(=O)[C@H]2CCCN2C(=O)[C@H](CO)NC(=O)[C@H](C)NC(=O)[C@H](CC2CCCCC2)NC(=O)[C@H](CCN)NC(=O)[C@H](Cc2c[nH]c3ccccc23)NC(=O)[C@H](CCN)NC(=O)[C@@H](CCN)NC(=O)[C@H](CCCN)NC(=O)[C@H](CCN)NC(=O)[C@H](C(C)(C)C)NC(=O)[C@H](CO)NC1=O [compound 141] (cyclo([Nva]S[Tle][Dab][Orn][dDab][Dab]W[Dab][Cha]AS[dP]P))	8%
CC[C@H](C)[C@@H]1NC(=O)[C@@H]2CCCN2C(=O)[C@H]2CCCN2C(=O)[C@H](CO)NC(=O)[C@H](C)NC(=O)[C@H](C(C)(C)C)NC(=O)[C@H](CCN)NC(=O)[C@H](Cc2c[nH]c3ccccc23)NC(=O)[C@H](CCN)NC(=O)[C@@H](CCN)NC(=O)[C@H](CCCCN)NC(=O)[C@H](CCN)NC(=O)[C@H](Cc2ccc(O)cc2)NC(=O)[C@H](CO)NC1=O [compound 82] (cyclo(ISY[Dab]K[dDab][Dab]W[Dab][Tle]AS[dP]P))	1%
CC(C)C[C@@H]1NC(=O)[C@@H]2CCCN2C(=O)[C@H]2CCCN2C(=O)[C@H](CO)NC(=O)[C@H](C)NC(=O)[C@H](C(C)(C)C)NC(=O)[C@H](CCO)NC(=O)[C@H](Cc2c[nH]c3ccccc23)NC(=O)[C@H](CCN)NC(=O)[C@@H](CCN)NC(=O)[C@H](CCCN)NC(=O)[C@H](CCN)NC(=O)[C@H](Cc2ccc(O)cc2)NC(=O)[C@H](CO)NC1=O [compound 37] (cyclo(LSY[Dab][Orn][dDab][Dab]W[hSer][Tle]AS[dP]P))	1%
CC(C)[C@@H]1NC(=O)[C@@H]2CCCN2C(=O)[C@H]2CCCN2C(=O)[C@H](CO)NC(=O)[C@H](C)NC(=O)[C@H](CC2CCCCC2)NC(=O)[C@H](CCN)NC(=O)[C@H](Cc2c[nH]c3ccccc23)NC(=O)[C@H](CCN)NC(=O)[C@@H](CCN)NC(=O)[C@H](CCCN)NC(=O)[C@H](CCN)NC(=O)[C@H](Cc2ccc(O)cc2)NC(=O)[C@H](CO)NC1=O [compound 92] (cyclo(VSY[Dab][Orn][dDab][Dab]W[Dab][Cha]AS[dP]P))	5%
C[C@@H]1NC(=O)[C@H](Cc2c[nH]c3ccccc23)NC(=O)[C@@H]2CCCN2C(=O)[C@H]2CCCN2C(=O)[C@H](CO)NC(=O)[C@H](C)NC(=O)[C@H](C(C)(C)C)NC(=O)[C@H](CCN)NC(=O)[C@H](Cc2c[nH]c3ccccc23)NC(=O)[C@H](CCN)NC(=O)[C@@H](CCN)NC(=O)[C@H](CCCN)NC(=O)[C@H](CCN)NC(=O)[C@H](Cc2c[nH]c3ccccc23)NC1=O [compound 75] (cyclo(WAW[Dab][Orn][dDab][Dab]W[Dab][Tle]AS[dP]P))	1%
CC(C)C[C@@H]1NC(=O)[C@@H]2CCCN2C(=O)[C@H]2CCCN2C(=O)[C@H](CO)NC(=O)[C@H](C)NC(=O)[C@H](C(C)(C)C)NC(=O)[C@H](CCN)NC(=O)[C@H](Cc2c[nH]c3ccccc23)NC(=O)[C@H](CCN)NC(=O)[C@@H](CCN)NC(=O)[C@H](CN)NC(=O)[C@H](CCN)NC(=O)[C@H](Cc2ccc(O)cc2)NC(=O)[C@H](CO)NC1=O [compound 95] (cyclo(LSY[Dab][Dap][dDab][Dab]W[Dab][Tle]AS[dP]P))	1%
CC[C@H](C)[C@@H]1NC(=O)[C@@H]2CCCN2C(=O)[C@H]2CCCN2C(=O)[C@H](CO)NC(=O)[C@H](C)NC(=O)[C@H](C(C)(C)C)NC(=O)[C@H](CCN)NC(=O)[C@H](Cc2c[nH]c3ccccc23)NC(=O)[C@H](CCN)NC(=O)[C@H](CCN)NC(=O)[C@H](CCCN)NC(=O)[C@H](CCN)NC(=O)[C@H](CC2CCCCC2)NC(=O)[C@H](CO)NC1=O [compound 142] (cyclo(IS[Cha][Dab][Orn][Dab][Dab]W[Dab][Tle]AS[dP]P))	1%
C[C@@H]1NC(=O)[C@H](Cc2c[nH]c3ccccc23)NC(=O)[C@@H]2CCCN2C(=O)[C@H]2CCCN2C(=O)[C@H](CO)NC(=O)[C@H](C)NC(=O)[C@H](C(C)(C)C)NC(=O)[C@H](CCN)NC(=O)[C@H](Cc2c[nH]c3ccccc23)NC(=O)[C@H](CCN)NC(=O)[C@@H](CCN)NC(=O)[C@H](CCCCN)NC(=O)[C@H](CCN)NC(=O)[C@H](Cc2ccc(O)cc2)NC1=O [compound 78] (cyclo(WAY[Dab]K[dDab][Dab]W[Dab][Tle]AS[dP]P))	1%
C[C@@H]1NC(=O)[C@H](CC2CCCCC2)NC(=O)[C@H](CCN)NC(=O)[C@H](Cc2c[nH]c3ccccc23)NC(=O)[C@H](CCN)NC(=O)[C@@H](CCN)NC(=O)[C@H](CCCN)NC(=O)[C@H](CCN)NC(=O)[C@H](Cc2ccc(O)cc2)NC(=O)[C@H](CO)NC(=O)[C@H](Cc2c[nH]c3ccccc23)NC(=O)[C@@H]2CCCN2C(=O)[C@H]2CCCN2C(=O)[C@H](CO)NC1=O [compound 70] (cyclo(WSY[Dab][Orn][dDab][Dab]W[Dab][Cha]AS[dP]P))	5%
C[C@@H]1NC(=O)[C@H](C2CCCCC2)NC(=O)[C@H](CCN)NC(=O)[C@H](Cc2c[nH]c3ccccc23)NC(=O)[C@H](CCN)NC(=O)[C@@H](CCN)NC(=O)[C@H](CCCN)NC(=O)[C@H](CCN)NC(=O)[C@H](Cc2ccc(O)cc2)NC(=O)[C@H](CO)NC(=O)[C@H](Cc2ccc(O)cc2)NC(=O)[C@@H]2CCCN2C(=O)[C@H]2CCCN2C(=O)[C@H](CO)NC1=O [compound 73] (cyclo(YSY[Dab][Orn][dDab][Dab]W[Dab][Chg]AS[dP]P))	0%
C[C@@H]1NC(=O)[C@H](Cc2c[nH]c3ccccc23)NC(=O)[C@@H]2CCCN2C(=O)[C@H]2CCCN2C(=O)[C@H](CO)NC(=O)[C@H](Cc2nccs2)NC(=O)[C@H](C(C)(C)C)NC(=O)[C@H](CCN)NC(=O)[C@H](Cc2c[nH]c3ccccc23)NC(=O)[C@H](CCN)NC(=O)[C@@H](CCN)NC(=O)[C@H](CCCN)NC(=O)[C@H](CCN)NC(=O)[C@H](CC2CCCCC2)NC1=O [compound 7] (cyclo(WA[Cha][Dab][Orn][dDab][Dab]W[Dab][Tle][Ala(thiazol-2-yl)]S[dP]P))	8%
CC(C)C[C@@H]1NC(=O)[C@@H]2CCCN2C(=O)[C@H]2CCCN2C(=O)[C@H](CO)NC(=O)[C@H](C)NC(=O)[C@H](Cc2c[nH]c3ccccc23)NC(=O)[C@H](CCN)NC(=O)[C@H](Cc2c[nH]c3ccccc23)NC(=O)[C@H](CCN)NC(=O)[C@@H](CCN)NC(=O)[C@H](CCCN)NC(=O)[C@H](CCN)NC(=O)[C@H](Cc2c[nH]c3ccccc23)NC(=O)[C@H](CO)NC1=O [compound 109] (cyclo(LSW[Dab][Orn][dDab][Dab]W[Dab]WAS[dP]P))	2%
C[C@@H]1NC(=O)[C@H](C(C)(C)C)NC(=O)[C@H](CCN)NC(=O)[C@H](Cc2c[nH]c3ccccc23)NC(=O)[C@H](CCN)NC(=O)[C@@H](CCN)NC(=O)[C@H](CCCN)NC(=O)[C@H](CCN)NC(=O)[C@H](Cc2ccc(O)cc2)NC(=O)[C@H](CO)NC(=O)[C@H]([C@@H](C)O)NC(=O)[C@@H]2CCCN2C(=O)[C@H]2CCCN2C(=O)[C@H](Cc2ccc(O)cc2)NC1=O [compound 158] (cyclo(TSY[Dab][Orn][dDab][Dab]W[Dab][Tle]AY[dP]P))	1%
CC(C)C[C@@H]1NC(=O)[C@@H]2CCCN2C(=O)[C@H]2CCCN2C(=O)[C@H](CO)NC(=O)[C@H](C)NC(=O)[C@H](C(C)(C)C)NC(=O)[C@H](CCN)NC(=O)[C@H](Cc2c[nH]c3ccccc23)NC(=O)[C@H](CCN)NC(=O)[C@@H](CCN)NC(=O)[C@H](CCCN)NC(=O)[C@H](CCN)NC(=O)[C@H](Cc2ccc(O)cc2)NC(=O)[C@H](CO)NC1=O [compound 36] (cyclo(LSY[Dab][Orn][dDab][Dab]W[Dab][Tle]AS[dP]P))	1%
CC(C)C[C@@H]1NC(=O)[C@@H]2CCCN2C(=O)[C@H]2CCCN2C(=O)[C@H](CO)NC(=O)[C@H](C)NC(=O)[C@H](C(C)(C)C)NC(=O)[C@H](CCN)NC(=O)[C@H](Cc2c[nH]c3ccccc23)NC(=O)[C@H](CCN)NC(=O)[C@@H](CCN)NC(=O)[C@H](CCCN)NC(=O)[C@H](CCN)NC(=O)[C@H](Cc2ccc(O)cc2)NC(=O)[C@H](CN)NC1=O [compound 145] (cyclo(L[Dap]Y[Dab][Orn][dDab][Dab]W[Dab][Tle]AS[dP]P))	0%
CCC[C@@H]1NC(=O)[C@@H]2CCCN2C(=O)[C@H]2CCCN2C(=O)[C@H](CO)NC(=O)[C@H](C)NC(=O)[C@H](CC2CCCCC2)NC(=O)[C@H](CCN)NC(=O)[C@H](Cc2c[nH]c3ccccc23)NC(=O)[C@H](CCN)NC(=O)[C@@H](CCN)NC(=O)[C@H](CCCN)NC(=O)[C@H](CCN)NC(=O)[C@H](Cc2ccc(O)cc2)NC(=O)[C@H](CO)NC1=O [compound 93] (cyclo([Nva]SY[Dab][Orn][dDab][Dab]W[Dab][Cha]AS[dP]P))	5%
CC(C)[C@@H]1NC(=O)[C@@H]2CCCN2C(=O)[C@H]2CCCN2C(=O)[C@H](CO)NC(=O)[C@H](C)NC(=O)[C@H](C(C)(C)C)NC(=O)[C@H](CCN)NC(=O)[C@H](Cc2c[nH]c3ccccc23)NC(=O)[C@H](CCN)NC(=O)[C@@H](CCN)NC(=O)[C@H](CCCN)NC(=O)[C@H](CCN)NC(=O)[C@H](Cc2ccc(O)cc2)NC(=O)[C@H](CO)NC1=O [compound 45] (cyclo(VSY[Dab][Orn][dDab][Dab]W[Dab][Tle]AS[dP]P))	2%
CC(C)[C@@H]1NC(=O)[C@@H]2CCCN2C(=O)[C@H]2CCCN2C(=O)[C@H](CO)NC(=O)[C@H](C)NC(=O)[C@H](C(C)(C)C)NC(=O)[C@H](CCN)NC(=O)[C@H](Cc2c[nH]c3ccccc23)NC(=O)[C@H](CCN)NC(=O)[C@@H](CCN)NC(=O)[C@H](CCCN)NC(=O)[C@H](CCN)NC(=O)[C@H](CC2CCCCC2)NC(=O)[C@H](C)NC1=O [compound 51] (cyclo(VA[Cha][Dab][Orn][dDab][Dab]W[Dab][Tle]AS[dP]P))	1%
